“Also recorded” adds a separate entry of the source. Peptide text beside a SMILES is read from it. * marks the point of attachment. Cbz = O=C(OCc1ccccc1)*
Tests used:
Format in all cases: cell-based, human
[1] = tested on: PMA-induced APOBEC3B upregulation; assay: Inhibitor pretreatment before PMA induction of APOBEC3B in MCF10A cells, RT-qPCR
Description: PMA is a well-known agonist of PKC, but it also affects other cellular processes. To determine whether APOBEC3B induction by PMA occurs through PKC signal transduction or an alternative mechanism, a panel of existing PKC inhibitors that vary with respect to class selectivity were analyzed. MCF10A cells were pre-treated for 30 minutes with varying concentrations of the pan-PKC inhibitor G66983 (Gschwendt et al., FEBS Lett. 392(2):77-80, 1996) and then treated for six hours with PMA (25 ng/mL). […] As additional controls, MCF10A cells were pretreated in parallel with the phosphoinositol 3 kinase (PI3K) inhibitor, LY294002, and the mitogen-activated protein kinase kinase (MEK) inhibitor, U0126, prior to PMA induction (FIGS. 2B and 2C).
(§1) For induction experiments, 2.5×10^5 cells were plated in a 6-well plate 1 day prior to drug treatment. PMA was then added to the media and incubated at 37° C. with 5% CO2 for six hours unless otherwise indicated. Cells were harvested, RNA was extracted, and RT-qPCR was performed as previously reported (Refsland et al. 2010, Nucleic Acids Res 38:4274-4284). For experiments utilizing inhibitors, cells were pretreated with inhibitors 30 minutes prior to PMA induction (25 ng/mL). PMA (Thermo Fisher Scientific, Inc., Waltham, Mass.), cyclohexamide (Acros Organics, Thermo Fisher Scientific, Inc., Waltham, Mass.), G66983 (Cayman Chemical co., Ann Arbor, Mich.), LY294002 (EMD Chemicals, Merck KGaA, Darmstadt, Germany), U0126 (EMD Chemicals, Merck KGaA, Darmstadt, Germany), AEB071 (Medchemexpress, Monmouth Junction, N.J.), Go6976 (Enzo Life Sciences, Inc., Farmingdale, N.Y.), BAY 11-7082 (R&D Systems, INc., Minneapolis, Minn.), and MG132 (Thermo Fisher Scientific, Inc., Waltham, Mass.) were stored as recommended. NIKi/Compound 31 was synthesized as described (Li et al., 2013, Bioorganic & Medicinal Chemistry Letters 23:1238-1244).

[2] = tested on: cancer cell lines; assay: Cell cycle and viability of AEB071-treated cancer cell lines; settings: 10 μM, 48 hours, data not shown
Description: (§2) Each line was treated for 48 hours with 10 μM AEB071, and then APOBEC3B mRNA and protein levels were quantified by RT-qPCR and immunoblotting. As above, no effects on the cell cycle or cell viability were observed (data not shown). This is important since higher concentrations of AEB071 are known to cause cell cycle perturbations and apoptosis in certain cell types. APOBEC3B mRNA levels were reduced by more than half in 7/16 cell lines, including the breast cancer cell lines MDA-MB-468, MDA-MB-453, and HCC1806, the ovarian cancer cell line OVCAR5, and the head/neck lines SQ-20B, JSQ3, and TR146 (FIG. 4B, histogram). Changes of protein levels largely mirrored the mRNA results (FIG. 4B, immunoblot).

[3] = tested on: APOBEC3B; assay: Endogenous APOBEC3B expression in cancer cell lines treated with PKC inhibitor; settings: 10 μM, 48 hours; breast, ovarian, bladder and head/neck cancer cell lines
Description: Four breast cancer cell lines, four ovarian cancer cell lines, four bladder cancer cell lines, and four head/neck cancer cell lines were analyzed to determine whether the constitutively high levels of endogenous APOBEC3B observed in many human cancer cell lines occurs through the PKC pathway. The selected cell lines expressed a 10-fold range of endogenous APOBEC3B mRNA levels (FIG. 4A).
as §2

[4] = tested on: MCF10A cells; assay: Morphology and viability of inhibitor-treated MCF10A cells; settings: low concentrations used (5 μM and around), data not shown
Description: PMA is a well-known agonist of PKC, but it also affects other cellular processes. To determine whether APOBEC3B induction by PMA occurs through PKC signal transduction or an alternative mechanism, a panel of existing PKC inhibitors that vary with respect to class selectivity were analyzed. MCF10A cells were pre-treated for 30 minutes with varying concentrations of the pan-PKC inhibitor G66983 (Gschwendt et al., FEBS Lett. 392(2):77-80, 1996) and then treated for six hours with PMA (25 ng/mL). […] APOBEC3B was suppressed to background levels with 5 μM G66983, as well as higher concentrations (FIG. 2A). […] As additional controls, MCF10A cells were pretreated in parallel with the phosphoinositol 3 kinase (PI3K) inhibitor, LY294002, and the mitogen-activated protein kinase kinase (MEK) inhibitor, U0126, prior to PMA induction (FIGS. 2B and 2C).

[5] = tested on: APOBEC family members; assay: mRNA levels of the other APOBEC family members after PMA treatment, RT-qPCR; settings: MCF10A cells
Description: (§3) A panel of immortalized normal human epithelial cells lines and breast cancer cell lines was treated with the model PKC-NFκB pathway activator PMA (or equal amounts of DMSO as a negative control) and previously validated reverse transcription quantitative PCR (RT-qPCR) assays were used to measure mRNA levels of all eleven human APOBEC family members. APOBEC3B mRNA was induced specifically by PMA treatment of several lines including the immortalized normal breast epithelial cell line MCF10A (FIG. 6). Under standard cell culture conditions, MCF10A expresses low levels of APOBEC3B and APOBEC3F, even lower levels of APOBEC3G and APOBEC3H, high levels of APOBEC3C, and undetectable levels of all other APOBEC family members.
For induction experiments, 2.5×10^5 cells were plated in a 6-well plate 1 day prior to drug treatment. PMA was then added to the media and incubated at 37° C. with 5% CO2 for six hours unless otherwise indicated. Cells were harvested, RNA was extracted, and RT-qPCR was performed as previously reported (Refsland et al. 2010, Nucleic Acids Res 38:4274-4284). For experiments utilizing inhibitors, cells were pretreated with inhibitors 30 minutes prior to PMA induction (25 ng/mL). […]

[6] = tested on: APOBEC3B promoter region; assay: Chromatin immunoprecipitation after PMA treatment of MCF10A cells; settings: PMA for two hours, ChIP-qPCR
Description: Next, a series of chromatin immunoprecipitation (ChIP) experiments were performed to determine whether the canonical or noncanonical NFκB pathway is responsible for upregulating APOBEC3B. Primer sets were designed for each of the predicted NFκB binding sites near the APOBEC3B transcriptional start site, as well as a control set in the promoter region of NFKBIA (FIG. 3E). ChIP was performed for RELA, RELB, RNA POL II (positive control), and isotype matched IgG (negative control). RELA, RELB, and RNA POL II were all bound to the NFKBIA promoter following PMA treatment (FIG. 3F). In addition, RNA POL II strongly bound to the APOBEC3B gene near the transcriptional start site (FIG. 3F). Also, RELB bound both near the transcriptional start site and at sites 4 and 5, which are located in intron 2 and too close together to be distinguished by this procedure. Binding also may occur at lower levels at site 3 in intron 1, but the IgG signal was too high to distinguish background from actual binding. These ChIP data strongly implicate the noncanonical NFκB pathway, specifically RELB (and not RELA), in directly inducing APOBEC3B transcription in response to PMA activation of PKC.
MCF10A cells were treated with either DMSO or 25 ng/mL PMA for two hours. Cross-linking was performed with 1% formaldehyde for 10 minutes at room temperature and quenched with 150 mM glycine. […]

[7] = tested on: APOBEC3B; assay: PMA induction of APOBEC3B mRNA in MCF10A cells, RT-qPCR
Description: as §3, §1

[8] = tested on: PKCα (PRKCA); assay: RNA sequencing of PMA-treated MCF10A cells, PKC isoforms; settings: RNAseq, in comparison to DMSO
Description: (§4) Two sets of MCF10A cells in duplicate were treated every eight hours with media supplemented with PMA or DMSO for 48 hours. At 48 hours, RNA was extracted using an RNeasy Mini Kit (Qiagen, Hilden, Germany). Total RNA was submitted to the University of Minnesota Genomics Center for sequencing on the Illumina HiSeq 2000 platform. Raw reads were analyzed using both DESeq2 (Love et al., 2014, Genome Biol. 15:550) and the Tuxedo suite (Trapnell et al., 2012, Nat Protoc. 7:562-578) to identify changes in mRNA expression in PMA treated versus untreated cells.

[9] = tested on: RELA, NFKB1, RELB and NFKB2; assay: RNA sequencing of PMA-treated MCF10A cells, NFκB components; settings: RNAseq
Description: as §4

[10] = 30-minute pretreatment, then PMA 25 ng/mL for six hours

Compound: CN1CCN(c2nc(C3=C(c4c[nH]c5ccccc45)C(=O)NC3=O)c3ccccc3n2)CC1 [AEB071]
- potency relative to G66983 in suppressing APOBEC3B induction [1]: approximately 10 fold
- effect on PMA-induced APOBEC3B induction [1, 10]: inhibited; also recorded: clear dose dependent suppression
- concentration causing complete suppression of APOBEC3B induction ([1]; pretreatment, then PMA): 500 nM
- effects on the cell cycle or cell viability [2]: no effects
- cell lines in which APOBEC3B mRNA levels were reduced by more than half [3]: 7/16

Compound: C[C@@H]1C[C@@H]([C@H](O)CC2CC(=O)NC(=O)C2)C(=O)[C@@H](C)C1 [cyclohexamide]
- effect on kinetics of APOBEC3B upregulation by PMA ([1]; 30-minute pretreatment with 10 μg/mL cyclohexamide): not affected

Compound: COc1ccc2c(c1)c(C1=C(c3c[nH]c4ccccc34)C(=O)NC1=O)cn2CCCN(C)C [G66983]
- morphological defects or viability issues [4]: No morphological defects or viability issues
- concentration at which APOBEC3B was suppressed to background levels [1, 10]: 5 µM
- effect on PMA-induced APOBEC3B induction [1, 10]: dose responsive suppression
- effect on PMA-induced APOBEC3B induction ([1]; 30-minute pretreatment, then PMA 25 ng/mL for six hours, listed as Go6983): inhibited

Compound: Cc1ccc(S(=O)(=O)/C=C/C#N)cc1 [BAY 11-7082]
- effect on PMA-induced APOBEC3B induction [1, 10]: dose responsive inhibition; also recorded: strong dose-responsive drops

Compound: CN(C)CCCn1cc(C2=C(c3c[nH]c4ccccc34)C(=O)NC2=O)c2ccccc21 [BIM-1]
- effect on PMA-induced APOBEC3B induction [1, 10]: inhibited

Compound: CCCCCCCCCCCCCC(=O)O[C@@H]1[C@@H](C)[C@@]2(O)[C@@H](C=C(CO)C[C@]3(O)C(=O)C(C)=C[C@@H]23)[C@@H]2C(C)(C)[C@]12OC(C)=O [PMA, phorbol 12-myristate 13-acetate]
- changes in expression levels of other APOBEC family members [5]: no detectable changes
- recruitment of RELB and p105/p52 to the APOBEC3B promoter region [6]: specifically and robustly recruited
- time after treatment at which significant APOBEC3B mRNA induction was detected ([7]; PMA 25 ng/ml): 30 min
- time post-treatment by which maximal APOBEC3B mRNA levels were observed ([7]; PMA 25 ng/ml): three
- PMA concentration at which APOBEC3B induction was near maximal ([7]; dose response): 25 ng/mL
- lowest PMA concentration that induced APOBEC3B ([7]; dose response): 1 ng/mL
- PKCα mRNA levels after PMA treatment [8]: unchanged
- expression levels of canonical and noncanonical NFκB components after PMA treatment [9]: unaffected

Compound: NC(=O)Nc1sc(-c2ccc(F)cc2)cc1C(N)=O [TPCA-1]
- effect on PMA-induced APOBEC3B induction [1, 10]: near the IC50 for IKKα, not IKKβ

Compound: N#CC(=C(/N)Sc1ccccc1N)/C(C#N)=C(\N)Sc1ccccc1N [U0126]
- effect on PMA-induced APOBEC3B induction [1, 10]: no suppression
- effect on PMA-induced APOBEC3B induction ([1]; 30-minute pretreatment, then PMA 25 ng/mL for six hours, listed as UO126): not

Compound: CC(C)C[C@@H](C=O)NC(=O)[C@H](CC(C)C)NC(=O)[C@H](CC(C)C)NC(=O)OCc1ccccc1 [MG132] (Cbz-Leu-Leu-Leu-aldehyde)
- effect on PMA-induced APOBEC3B induction [1, 10]: dose responsive inhibition; also recorded: decreased in a dose dependent manner

Compound: Cn1c2ccccc2c2c3c(c4c5ccccc5n(CCC#N)c4c21)CNC3=O [Go6976]
- effect on PMA-induced APOBEC3B induction [1, 10]: inhibited

Reference: patent publication US20200046671A1, “APOBEC3B MUTAGENESIS AND IMMUNOTHERAPY” (Regents of the University of Minnesota, priority 2015, published 2020)
